These results are taken from PMC8746328, “Three New Isoprenylated Flavones from Artocarpus chama Stem and Their Bioactivities” (Molecules, 2021).

One experiment deals with tyrosinase enzyme. Kind of experiment: Enzymatic antityrosinase activity, dopachrome method (L-Dopa substrate). Conditions: pH 6.8, 25 °C. Format: biochemical. The method, then:
Antityrosinase activity was determined by the dopachrome method. L-dopa was used as the substrate. Oxidation of L-Dopa to dopachrome which, represented by red color, could be detected by visible light at 492 nm. Briefly, 140 µL of phosphate buffer pH 6.8, 20 µL of sample solution (200 µg/mL), and 2 µL of tyrosinase enzyme solution (203.3 unit/mL) were mixed in a 96-well plate at 25 °C for 10 min. Then, 20 µL of L-Dopa (0.85 mM) was added, and optical density (OD) was detected. After incubation at 25 °C for 20 min, OD was detected again. Dimethyl sulfoxide (DMSO) was used as a negative control. […] The percent inhibition of tyrosinase reaction was calculated by the following equation:Tyrosinase inhibition (%) = [1 − (OD492 of sample/OD492 of control)] × 100.

Experiment [1] deals with Cutibacterium acnes (DMST 14916). Kind of experiment: Antimicrobial activity, broth microdilution. Format: cell-based. Conditions: C. acnes. The protocol: (§1) Microorganisms that cause skin infection, such as Staphylococcus aureus (ATTC 25923), Staphylococcus epidermidis (TISTR 517), Cutibacterium acnes (DMST 14916), and methicillin-resistant Staphylococcus aureus (DMST20654),t were selected for this study. The isolated compounds were determined for minimum inhibitory concentration (MIC) and minimum bactericidal concentration (MBC) by a modified broth microdilution method. Briefly, 20 µL of the test samples (dilution series ranging from 2560 to 1.25 µg/mL) was added in wells 1 to 12. Then, 80 µL of media was added into each well. Next, 100 µL of the inoculum (concentration 10^6 CFU/mL) was added in each well. The final concentration of inoculum in each well was 5 × 10^5 CFU/mL. Then, the cultures were incubated follow the conditions. Incubation mixtures showing positive results of inhibitory effect (MIC) were streaked on media agar, and then incubated by following the conditions.

Experiment [2] has as its system Staphylococcus aureus (ATTC 25923). Kind of experiment: Antimicrobial activity, broth microdilution. The class given is cell-based. Conditions: S. aureus. The protocol: as §1
Experiment [3] has as its system methicillin-resistant Staphylococcus aureus (DMST20654). Kind of experiment: Antimicrobial activity, broth microdilution. The class given is cell-based. Conditions: MRSA. The method, then: as §1
Experiment [4] relates to Staphylococcus epidermidis (TISTR 517). Kind of experiment: Antimicrobial activity, broth microdilution. Conditions: TISTR517, S. epidermidis. Format: cell-based. The protocol:
as §1

The test system of experiment [5] is B16F1 melanoma cells. Kind of experiment: Melanin content. The class given is cell-based, murine. Particulars: 50 µg/mL, 48 h. The method, then: (§2) Murine melanoma B16-F1 cells (CLS-400122) were cultured in DMEM or Dulbecco’s modified Eagle medium containing 10% FBS heat-inactivated fetal bovine serum at 37 °C in a humidified atmosphere with 5% CO2. When cells reached 70–80% confluence cell viability, cellular tyrosinase activity and melanin content were measured. First, 3 × 10^5 cells/well were seeded in 12-well plates and allowed to adhere at 37 °C for 12 h. Cells were treated with test samples; control cells were treated with 0.5% DMSO. After 48 h incubation, cells were lysed with RIPA and centrifuged at 14,000 rpm for 20 min (4 °C) in order to separate the supernatant for measurement of tyrosinase activity, and the cell pellet was measured for melanin content. Cell pellets were dissolved with 1M NaOH and incubated at 55 °C for 1 h. Melanin content was calculated by comparison with the standard curve of synthetic melanin at 475 nm.

The test system of experiment [6] is B16F1 melanoma cells. Kind of experiment: Intracellular antityrosinase activity. Format: cell-based, murine. Particulars: 50 µg/mL, 48 h. The method, then:
as §2, with “The supernatant was collected for determination of protein content by the Bradford method, with bovine serum albumin (BSA) used as a standard. The supernatant of lysate cells and 2 mg/mL L-Dopa” for “Cell pellets”, “added to a 96-well plate” for “dissolved with 1M NaOH”, “25” for “55”, “After that, optical densities were determined at 492 nm. Tyrosinase inhibition” for “Melanin content”, “then calculated.” for “calculated by comparison with the standard curve of synthetic melanin at 475 nm.”

≈ marks a conversion by molar mass, not a printed value. Like-named read-outs stand apart in the source and are kept apart here. Where only a bound is given, the exact number is not on record here.

With `O=C1C[C@@H](c2ccc(O)cc2)Oc2cc(O)cc(O)c21` [Compound 7, Naringenin], at tyrosinase enzyme, the “IC50 on tyrosinase inhibitory activity” value was above 200 µg/mL. Further, the MBC in experiment [1], in experiment [2], in experiment [3] (read-out: MBC) and in experiment [4] was above 256 µg/mL throughout. Moreover, the MIC in experiment [1] was above 256 µg/mL; in experiment [2] it was above 256 µg/mL; in experiment [3] (read-out: MIC), above 256 µg/mL; in experiment [4] it was 256 µg/mL (≈ 940 µM).
As for `CC(C)=CCCC(C)=CCCC(C)=CCc1cc(-c2cc(=O)c3c(O)cc(O)cc3o2)ccc1O` [Compound 1, 3′-Farnesylapigenin], the “IC50 on tyrosinase inhibitory activity” value against tyrosinase enzyme is recorded as 135.70 ± 1.16 µg/mL (≈ 286 µM). In addition, the MBC in experiment [1], in experiment [2], in experiment [3] (read-out: MBC) and in experiment [4] was above 256 µg/mL throughout. The MIC in experiment [1] is above 256 µg/mL; in experiment [2], 256 µg/mL (≈ 539 µM); in experiment [3] (read-out: MIC) it was above 256 µg/mL; in experiment [4], 256 µg/mL (≈ 539 µM).
For the molecule `COc1cc2oc(-c3ccc(O)cc3O)c(CC=C(C)C)c(=O)c2c(O)c1/C=C/C(C)C` [Compound 8, artocarpin], the “IC50 on tyrosinase inhibitory activity” value against tyrosinase enzyme is above 200 µg/mL. Besides, the MBC was 32 µg/mL (≈ 73.3 µM) in experiment [1], 4 µg/mL (≈ 9.16 µM) in experiment [2], 2 µg/mL (≈ 4.58 µM) in experiment [3] (read-out: MBC) and 32 µg/mL (≈ 73.3 µM) in experiment [4]. The MIC in experiment [1] came out at 8 µg/mL (≈ 18.3 µM); in experiment [2], 2 µg/mL (≈ 4.58 µM); in experiment [3] (read-out: MIC), 2 µg/mL (≈ 4.58 µM); in experiment [4], 2 µg/mL (≈ 4.58 µM).
With `COc1cc(O)c2c(c1)O[C@H](c1ccc(O)cc1O)CC2=O` [Compound 6, Artocarpanone], in the experiment on B16F1 melanoma cells [5], the “Melanin content (result in words)” value was “could reduce the amount of melanin content”. Further, on tyrosinase enzyme, the “IC50 on tyrosinase inhibitory activity” value is given as 38.78 ± 1.02 µg/mL (≈ 128 µM). The “Intracellular antityrosinase activity (result in words)” value is “exhibited antityrosinase activity” in the experiment with B16F1 melanoma cells [6] and “exhibited intracellular antityrosinase activity” with B16F1 melanoma cells [6] (listed as artocarpanone). The MBC in experiment [1] is 64 µg/mL (≈ 212 µM); in experiment [2], 256 µg/mL (≈ 847 µM); in experiment [3] (read-out: MBC), above 256 µg/mL; in experiment [4] it was 128 µg/mL (≈ 423 µM). In addition, the MIC in experiment [1] was determined as 32 µg/mL (≈ 106 µM); in experiment [2], 64 µg/mL (≈ 212 µM); in experiment [3] (read-out: MIC), 128 µg/mL (≈ 423 µM); in experiment [4], 64 µg/mL (≈ 212 µM).
With `COc1cc([C@@H]2CC(=O)c3c(O)cc(O)cc3O2)ccc1O` [Compound 4, Homoeriodictyol], the MBC in experiment [1] was above 256 µg/mL; in experiment [2], above 256 µg/mL; in experiment [3] (read-out: MBC), above 256 µg/mL; in experiment [4], 256 µg/mL (≈ 847 µM). In addition, the MIC in experiment [1] was above 256 µg/mL; in experiment [2], 256 µg/mL (≈ 847 µM); in experiment [3] (read-out: MIC) it was above 256 µg/mL; in experiment [4] it was 128 µg/mL (≈ 423 µM).
In experiment [3], `CN[C@H](CC(C)C)C(=O)N[C@H]1C(=O)N[C@@H](CC(N)=O)C(=O)N[C@H]2C(=O)N[C@H]3C(=O)N[C@H](C(=O)N[C@H](C(=O)O)c4cc(O)cc(O)c4-c4cc3ccc4O)[C@H](O)c3ccc(c(Cl)c3)Oc3cc2cc(c3O[C@@H]2O[C@H](CO)[C@@H](O)[C@H](O)[C@H]2O[C@H]2C[C@](C)(N)[C@H](O)[C@H](C)O2)Oc2ccc(cc2Cl)[C@H]1O` [Van, Vancomycin, reference compound] had an MBC of 0.5 µg/mL (≈ 0.345 µM) and an MIC of 0.125 µg/mL (≈ 0.0863 µM).
Consider `COc1cc(O)c(-c2oc3cc(O)cc(O)c3c(=O)c2CC=C(C)C)cc1O` [Compound 3, 3-Prenyl-5,7,2′,5′-tetrahydroxy-4′-methoxyflavone], for which the “IC50 on tyrosinase inhibitory activity” value on tyrosinase enzyme is reported as above 200 µg/mL. Besides, the MBC was above 256 µg/mL in experiment [1], 16 µg/mL (≈ 41.6 µM) in experiment [2], 32 µg/mL (≈ 83.3 µM) in experiment [3] (read-out: MBC) and 64 µg/mL (≈ 167 µM) in experiment [4]. For the same molecule, the MIC came to 128 µg/mL (≈ 333 µM) in experiment [1], 4 µg/mL (≈ 10.4 µM) in experiment [2], 4 µg/mL (≈ 10.4 µM) in experiment [3] (read-out: MIC) and 16 µg/mL (≈ 41.6 µM) in experiment [4].
Regarding `Cc1onc(-c2ccccc2)c1C(=O)N[C@@H]1C(=O)N2[C@@H]1SC(C)(C)[C@@H]2C(=O)O` [Oxa, Oxacillin, reference compound], the MBC in experiment [1] came out at 0.5 µg/mL (≈ 1.25 µM); in experiment [2], 0.125 µg/mL (≈ 0.311 µM); in experiment [4] it was 0.5 µg/mL (≈ 1.25 µM). The minimal inhibitory concentration (MIC) in experiment [1] was 0.5 µg/mL (≈ 1.25 µM); in experiment [2], 0.125 µg/mL (≈ 0.311 µM); in experiment [4] it was 0.5 µg/mL (≈ 1.25 µM).
For `CC(C)=CC(O)c1c(-c2cc(O)c(O)cc2O)oc2cc(O)cc(O)c2c1=O` (stereo not shown) [Compound 2, 3-(Hydroxyprenyl) isoetin], the “IC50 on tyrosinase inhibitory activity” value on tyrosinase enzyme was above 200 µg/mL. For the same molecule, the MBC in experiment [1] was above 256 µg/mL; in experiment [2], 32 µg/mL (≈ 82.8 µM); in experiment [3] (read-out: MBC), 64 µg/mL (≈ 166 µM); in experiment [4], 32 µg/mL (≈ 82.8 µM). In addition, the MIC worked out at 128 µg/mL (≈ 331 µM) in experiment [1], 16 µg/mL (≈ 41.4 µM) in experiment [2], 16 µg/mL (≈ 41.4 µM) in experiment [3] (read-out: MIC) and 16 µg/mL (≈ 41.4 µM) in experiment [4].
Turning to `CC1(C)C=Cc2c(cc3oc4c(c(=O)c3c2O)CC2c3c(c(O)cc(O)c3-4)OC2(C)C)O1` (stereo not shown) [Compound 5, Isocycloartobiloxanthone], the “IC50 on tyrosinase inhibitory activity” value at tyrosinase enzyme was above 200 µg/mL. For the same molecule, the MBC was above 256 µg/mL in experiment [1], 8 µg/mL (≈ 18.4 µM) in experiment [2], 64 µg/mL (≈ 147 µM) in experiment [3] (read-out: MBC) and 8 µg/mL (≈ 18.4 µM) in experiment [4]. For the same molecule, the minimal inhibitory concentration (MIC) turned out to be 256 µg/mL (≈ 589 µM) in experiment [1], 4 µg/mL (≈ 9.21 µM) in experiment [2], 16 µg/mL (≈ 36.8 µM) in experiment [3] (read-out: MIC) and 4 µg/mL (≈ 9.21 µM) in experiment [4].
